Results reported in patent US12168012B2, “NLRP3 inflammasome inhibitors” (Novartis AG, priority 2018, dated 2024).

Key:
Type in all cases: cell-based
THP-1 cells = test: Readout of pyroptosis (PrestoBlue cell viability reagent) in the IL-1β secretion assay; details: Homo sapiens; PMA-differentiated THP-1 cells, nigericin; values marked * in the IL-1β column
Method: Monocytic THP-1 cells (ATCC: TIB-202) were maintained according to providers' instructions in RPMI media (RPMI/Hepes+10% fetal bovine serum+Sodium Pyruvate+0.05 mM Beta-mercaptoethanol (1000× stock)+Pen-Strep). Cells were differentiated in bulk with 0.5 μM phorbol 12-myristate 13-acetate (PMA; Sigma #P8139) for 3 hours, media was exchanged, and cells were plated at 50,000 cells per well in a 384-well flat-bottom cell culture plates (Greiner, #781986), and allowed to differentiate overnight. Compound in a 1:3.16 serial dilution series in DMSO was added 1:100 to the cells and incubated for 1 hour. The NLRP3 inflammasome was activated with the addition of 15 μM (final concentration) Nigericin (Enzo Life Sciences, #BML-CA421-0005), and cells were incubated for 3 hours. 10 μL supernatant was removed, and IL-1p levels were monitored using an HTRF assay (CisBio, #62IL1PEC) according to manufacturers' instructions. Viability and pyroptosis was monitored with the addition of PrestoBlue cell viability reagent (Life Technologies, #A13261) directly to the cell culture plate.

[1] = tested on: NF-kB-dependent TNF-α secretion; test: TNF-α secretion assay (counterscreen); details: Homo sapiens; THP-1 cells, Pam3CSK4-stimulated, 3 hours, HTRF
Outline: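 Undifferentiated THP-1 cells, rested overnight, given compound then stimulated with 1 μg/mL LPS or 100 ng/mL Pam3CSK4 for 3 hours. Supernatant TNF-α measured by HTRF; IC50 from four-parameter logistic fit of % inhibition versus concentration, with viability monitored.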

NLRP3 inflammasome = test: IL-1β secretion assay; details: PMA-differentiated THP-1 cells, 15 μM nigericin, HTRF
Outline: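 PMA-differentiated THP-1 cells stimulated with nigericin to trigger NLRP3-dependent IL-1β secretion, measured by HTRF after 3 h. Viability/pyroptosis monitored with PrestoBlue. IC50 from logistic fit of % inhibition vs concentration with Hill coefficient.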

SMILES	IC50 (THP-1 cells) [nM]	IC50 [1] [nM]	IC50 (NLRP3 inflammasome; 3 hours) [nM]	IC50 (NLRP3 inflammasome; Homo sapiens, THP-1, 3 h) [nM]
CC(C)c1nn(CC(=O)Nc2nncs2)c(=O)c2cc3sc(Cl)cc3n12 [Ex 117, 2-(2-Chloro-5-isopropyl-8-oxothieno[2′,3′:4,5]pyrrolo[1,2-d][1,2,4]triazin-7(8H)-yl)-N-(1,3,4-thiadiazol-2-yl)acetamide]	6000	–	–	–
CC(C)c1nn(CC(=O)N[C@H]2CCC[C@@H](NC(=O)OC(C)(C)C)C2)c(=O)c2cc3sc(Cl)cc3n12 [Ex 56, tert-Butyl ((1R,3S)-3-(2-(2-chloro-5-isopropyl-8-oxothieno[2′,3′:4,5]pyrrolo[1,2-d][1,2,4]triazin-7(8H)-yl)acetamido)cyclohexyl)carbamate]	> 330	> 100000	–	–
CC(C)(O)c1nn(CC(=O)Nc2cccc(NS(C)(=O)=O)c2)c(=O)c2cc3sc(Cl)cc3n12 [Ex 116, 2-(2-Chloro-5-(2-hydroxypropan-2-yl)-8-oxothieno[2′,3′:4,5]pyrrolo[1,2-d][1,2,4]triazin-7(8H)-yl)-N-(3-(methylsulfonamido)phenyl)acetamide]	400	–	–	–
CC(C)c1nn(CC(=O)N[C@@H]2CCC(=O)N(C)C2)c(=O)c2cc3scnc3n12 [Ex 49, (R)-2-(5-Isopropyl-8-oxothiazolo[5′,4′:4,5]pyrrolo[1,2-d][1,2,4]triazin-7(8H)-yl)-N-(1-methyl-6-oxopiperidin-3-yl)acetamide]	–	> 100000	26.4	–
CC(C)(O)c1nn(CC(=O)Nc2ccncn2)c(=O)c2cc3sc(Cl)cc3n12 [Ex 9, 2-(2-Chloro-5-(2-hydroxypropan-2-yl)-8-oxothieno[2′,3′:4,5]pyrrolo[1,2-d][1,2,4]triazin-7(8H)-yl)-N-(pyrimidin-4-yl)acetamide]	–	> 100000	–	7.9
CC(C)c1nn(CC(=O)N[C@@H]2CCCN(C[C@H](C)O)C2)c(=O)c2cc3sc(Cl)cc3n12 [Ex 129, 2-(2-Chloro-5-isopropyl-8-oxothieno[2′,3′:4,5]pyrrolo[1,2-d][1,2,4]triazin-7(8H)-yl)-N-((R)-1-((S)-2-hydroxypropyl)piperidin-3-yl)acetamide]	–	> 100000	–	3.1
